Measured values: the C3SDB collision cross section collection
Values joined by “and” are separate entries in the source; they are usually repeats but may differ in a detail not shown here. Equal entries are not always repeated.

Conditions: instrument: DT, stepped-field

Row | Compound | collision cross section (N2) ([M+Na]+) | collision cross section (N2) ([M+H]+) | collision cross section (N2) ([M]+) [Å²]
1 | CCCCCCCC/C=C\CCCCCCCC(=O)O [Oleic Acid] | 181.37 Å² |  | 
2 | OC[C@H]1O[C@H](O[C@H]2[C@H](O)[C@H](O)COC2(O)CO)[C@H](O)[C@@H](O)[C@@H]1O (stereo partly drawn) [D-(+)-Turanose] | 177 Å² |  | 
3 | O=C(CO)[C@H](O)[C@H](O)COP(=O)(O)O [D-Ribulose 5-Phosphate] | 153.25 Å² |  | 
4 | O=C(O)[C@@H]1CCCCN1 [L-Pipecolic Acid] |  | 130.93 Å² | 
5 | O=C1C(=O)c2cccc3cccc1c23 [Acenaphthenequinone] |  | 145.51 Å² | 
6 | OC[C@H]1OC(O)[C@H](O)[C@@H](O)[C@@H]1O (stereo partly drawn) [D-Glucose] | 147.72 Å² |  | 
7 | c1ccc2c(c1)cc1ccc3cccc4ccc2c1c34 [Benzo(a)Pyrene] |  | 152.05 Å² | 
8 | CC(=O)N[C@@H](C)C(=O)O [N-Acetyl-L-alanine] | 138.07 Å² |  | 
9 | CCCCC/C=C\C[C@H]1O[C@H]1C/C=C\C/C=C\CCCC(=O)O [11(12)-EET] | 187.87 Å² |  | 
10 | OC[C@H]1OC(O)[C@H](O)[C@@H](O)[C@H]1O (stereo partly drawn) [D-Galactose] | 142.39 Å² |  | 
11 | CCCCC[C@H](O)/C=C/C=C\C=C\C=C\[C@@H](O)[C@@H](O)CCCC(=O)O [Lipoxin A4] | 197.89 Å² |  | 
12 | C1=Cc2c3ccc4ccccc4c3cc3cccc1c23 [Benz(j)aceanthrylene] |  | 155.08 Å² | 
13 | O=P(O)(O)OC[C@H]1O[C@H](O[C@H]2O[C@H](CO)[C@@H](O)[C@H](O)[C@H]2O)[C@H](O)[C@@H](O)[C@@H]1O [Trehalose 6-Phosphate] | 192.43 Å² |  | 
14 | O=C(O)CC(O)(CC(=O)O)C(=O)O [Citric Acid] | 146.11 Å² | 148.9 Å² | 
15 | CCCCCCCCCCCC(=O)O[C@H](CC(=O)[O-])C[N+](C)(C)C [Lauroyl-L-carnitine] | 217.5 Å² |  | 
16 | CP(=O)(O)CCC(N)C(=O)O (configuration not stated) [Glufosinate] | 142.7 Å² | 140.15 Å² | 
17 | O=C(CO)[C@@H](O)[C@H](O)CO [D-Xylulose] | 141.76 Å² |  | 
18 | OC[C@H]1O[C@@H](O[C@H]2[C@H](O)[C@@H](O)[C@H](O[C@H]3[C@H](O)[C@@H](O)[C@H](O[C@H]4[C@H](O)[C@@H](O)C(O)O[C@@H]4CO)O[C@@H]3CO)O[C@@H]2CO)[C@H](O)[C@@H](O)[C@@H]1O (some centres not stated) [Cellotetraose] | 225 Å² |  | 
19 | CCCCC/C=C\C/C=C\C/C=C\CCCCCCC(=O)O [Bishomo-gamma-linolenic Acid] | 183.38 Å² |  | 
20 | O=C[C@H](O)[C@@H](O)[C@H](O)COP(=O)(O)O [D-Xylose 5-phosphate] | 151.4 Å² |  | 
21 | O=P(O)(O)OC[C@H]1OC(O)[C@H](O)[C@@H]1O (stereo partly drawn) [D-Ribose 5-Phosphate] | 155.8 Å² |  | 
22 | O=C(O)CCC(=O)O [Succinic Acid] |  | 122.66 Å² | 
23 | N#Cc1c[nH]cc1-c1cccc2c1OC(F)(F)O2 [Fludioxonil] | 165.7 Å² |  | 

Row | Compound | collision cross section (N2) ([M+Na]+) | collision cross section (N2) ([M+H]+) | collision cross section (N2) ([M]+) [Å²]
24 | CC[C@H](NC(=O)CC[C@H](N)C(=O)O)C(=O)NCC(=O)O [Ophthalmic Acid] | 165.7 Å² | 167.23 Å² | 
25 | CCNc1nc(Cl)nc(NC(C)C)n1 [Atrazine] |  | 150.74 Å² | 
26 | NCCP(=O)(O)O [2-Aminoethylphosphonate] |  | 132.21 Å² | 
27 | c1cncc(C2CCCCN2)c1 (configuration not stated) [Anabasine] |  | 140.18 Å² | 
28 | NC(=NCCC[C@H](N)C(=O)O)N[C@@H](CC(=O)O)C(=O)O [Argininosuccinic Acid] | 172.22 Å² | 167.39 Å² | 
29 | OC[C@H]1O[C@@](CO)(OC[C@@]2(O[C@H]3O[C@H](CO)[C@@H](O)[C@H](O)[C@H]3O)O[C@H](CO)[C@@H](O)[C@@H]2O)[C@@H](O)[C@@H]1O [1-Kestose] | 205.43 Å² |  | 
30 | CCCCCCCCCCCCCCCCCCCCCCCC(=O)OC [Methyl Tetracosanoate] |  | 187.54 Å² | 
31 | CCCCC/C=C\C\C=C/C=C/C=C/[C@@H](SC[C@H](NC(=O)CC[C@H](N)C(=O)O)C(=O)NCC(=O)O)[C@@H](O)CCCC(=O)O [Leukotriene C4] | 260.57 Å² | 257.4 Å² | 
32 | CCCCCCCCCCCCCCCCCCC(=O)OC[C@@H](O)COP(=O)([O-])OCC[N+](C)(C)C [LPC(19:0)] |  | 241.9 Å² | 
33 | CCCCC/C=C/C/C=C\C[C@@H]1O[C@@H]1C/C=C\CCCC(=O)O [8(9)-EET] | 186.83 Å² |  | 
34 | CCCCCCC/C=C\CCCCCCCC(=O)OC[C@H](COP(=O)(O)OCCN)OC(=O)CCCCCCC/C=C\CCCCCCCCC [PE(18:1/18:1)] | 287.57 Å² and 288.54 Å² | 280.6 Å² and 284.02 Å² | 
35 | CCCCCCSC[C@H](NC(=O)CC[C@H](N)C(=O)O)C(=O)NCC(=O)O [S-Hexyl-glutathione] |  | 203.2 Å² | 
36 | CCCCC/C=C\C=C\C(=O)CCCCCCCC(=O)O [9-OxoODE] | 199.5 Å² | 184.2 Å² | 
37 | OC[C@H]1O[C@H](OC[C@H]2OC(O)(CO)[C@@H](O)[C@@H]2O)[C@H](O)[C@@H](O)[C@@H]1O (some centres not stated) [Palatinose] | 177.31 Å² |  | 
38 | OC[C@H]1O[C@@H](O[C@H]2[C@H](O)[C@H](O)[C@H](O[C@H]3[C@H](O)[C@H](O)[C@H](O[C@H]4[C@H](O)[C@H](O)C(O)O[C@@H]4CO)O[C@@H]3CO)O[C@@H]2CO)[C@@H](O)[C@@H](O)[C@@H]1O (some centres not stated) [Mannotetraose] | 234.12 Å² |  | 
39 | Cc1ccc2cc3ccccc3cc2c1 [2-Methylanthracene] |  | 138.61 Å² | 
40 | CCCCCCCCCCC(=O)OC[C@H](COP(=O)([O-])OCC[N+](C)(C)C)OC(=O)CCCCCCCCCC [PC(11:0/11:0)] | 260.59 Å² | 257.07 Å² | 
41 | CCCCC[C@H](O)/C=C/[C@@H]1[C@@H](C/C=C\CCCC(=O)O)[C@@H]2C[C@H]1OO2 [Prostaglandin H2] | 202.63 Å² |  | 
42 | CCCCCCCCCCCCCCCCCC(=O)O [Stearic Acid] | 191.83 Å² |  | 
43 | CCCCC/C=C\C/C=C\C=C\[C@@H](O)C/C=C\CCCC(=O)O [8S-HETE] | 187.17 Å² |  | 
44 | O=C[C@H](O)COP(=O)(O)O [D-Glyceraldehyde 3-Phosphate] |  | 135.86 Å² | 
45 | C1=Cc2cccc3cccc1c23 [Acenaphthylene] |  | 125.71 Å² | 

Continued, values first:

Row | collision cross section (N2) ([M+Na]+) | collision cross section (N2) ([M+H]+) | collision cross section (N2) ([M]+) [Å²] | Compound
46 |  | 142.8 Å² |  | CC12CCC(CC1=O)C2(C)C (configuration not stated) [Camphor]
47 | 160.83 Å² | 157.67 Å² |  | Nc1c(O)cccc1C(=O)CC(N)C(=O)O (racemic) [3-Hydroxy-DL-kynurenine]
48 | 232.01 Å² | 222.79 Å² |  | NC(=O)c1ccc[n+]([C@@H]2O[C@H](COP(=O)(O)OP(=O)(O)OC[C@H]3O[C@@H](n4cnc5c(=O)nc[nH]c54)[C@H](O)[C@@H]3O)[C@@H](O)[C@H]2O)c1 [Nicotinamide Hypoxanthine Dinucleotide]
49 |  | 149.5 Å² |  | O=C(O)C1=C[C@@H](O)[C@@H](O)[C@H](O)C1 [Shikimic Acid]
50 | 153.13 Å² |  |  | O=C(O)[C@H]1OC(O)[C@H](O)[C@@H](O)[C@@H]1O (stereo partly drawn) [D-Glucuronate]
51 |  | 136.57 Å² |  | Cn1cncc1C[C@H](N)C(=O)O [3-Methyl-L-histidine]
52 |  | 128.79 Å² |  | Oc1ccc(O)cc1 [Hydroquinone]
53 |  | 167.96 Å² |  | O=C1CC(c2ccc(O)cc2)Oc2cc(O)cc(O)c21 (configuration not stated) [Naringenin]
54 | 173.87 Å² | 178.96 Å² |  | Nc1nc(=O)c2ncn([C@H]3C[C@H](O)[C@@H](COP(=O)(O)O)O3)c2[nH]1 [2'-Deoxyguanosine 5'-Monophosphate]
55 | 149.97 Å² |  |  | CO[C@@H]1O[C@H](CO)[C@H](O)[C@H](O)[C@H]1O [Methyl beta-D-galactoside]
56 |  | 152.18 Å² |  | NCCC(=O)N[C@@H](Cc1cnc[nH]1)C(=O)O [Carnosine]
57 |  | 167.06 Å² |  | COc1ccc(-c2cc(=O)c3c(O)cc(O)cc3o2)cc1 [Acacetin]
58 |  | 134.59 Å² |  | O=C1C=Cc2cccc3cccc1c23 [Perinaphthenon]
59 |  | 128.35 Å² |  | O=C(O)c1cccnc1 [Nicotinic Acid]
60 |  | 193.63 Å² |  | Nc1nc(=O)c2c([nH]1)NCC(CNc1ccc(C(=O)N[C@@H](CCC(=O)O)C(=O)O)cc1)=N2 [Dihydrofolate]
61 | 139.87 Å² | 126.37 Å² |  | C[n+]1cccc(C(=O)[O-])c1 [Trigonelline]
62 |  |  | 168.33 | Oc1cc(O)c2cc(O)c(-c3ccc(O)c(O)c3)[o+]c2c1 [Cyanidin]
63 | 152.77 Å² | 156.07 Å² |  | Nc1ccc(S(N)(=O)=O)cc1 [Sulfanilamide]
64 |  | 164.24 Å² |  | COc1cc(O)c2c(c1)O[C@H](c1ccccc1)CC2=O [Pinostrobin]
65 |  | 172.53 Å² |  | Cc1ncc(C[n+]2csc(CCOP(=O)(O)O)c2C)c(N)n1 [Thiamine Monophosphate]
66 | 207.33 Å² |  |  | CCCCC[C@H](O)/C=C/[C@@H]1[C@@H](C/C=C\CCCC(=O)O)[C@@H](O)C[C@H]1O [Prostaglandin F2 alpha]
67 | 169.74 Å² | 163.84 Å² |  | Cc1cn([C@H]2C[C@H](O)[C@@H](COP(=O)(O)O)O2)c(=O)[nH]c1=O [Thymidine 5'-Monophosphate]
68 |  | 145.34 Å² |  | Cc1ncsc1CCO [4-Methyl-5-Thiazolethanol]
